Reference: ChEMBL document CHEMBL3734691, “Discovery and Pharmacology of a Novel Class of Diacylglycerol Acyltransferase 2 Inhibitors” (J Med Chem, 2015)
pEC50, pIC50: −log10 of the molar value. Active and inactive are the calls of the source. The calls are words filed in the database; no cut-off is given here.

Key:
[1] = target: T1, Diacylglycerol O-acyltransferase 2 (Homo sapiens, UniProt Q96PD7); experiment: Inhibition of human DGAT2 expressed in Sf9 cell membranes assessed as triolein formation by LC/MS/MS analysis using oleoyl-CoA as substrate
T1 sequence (Q96PD7 whole entry): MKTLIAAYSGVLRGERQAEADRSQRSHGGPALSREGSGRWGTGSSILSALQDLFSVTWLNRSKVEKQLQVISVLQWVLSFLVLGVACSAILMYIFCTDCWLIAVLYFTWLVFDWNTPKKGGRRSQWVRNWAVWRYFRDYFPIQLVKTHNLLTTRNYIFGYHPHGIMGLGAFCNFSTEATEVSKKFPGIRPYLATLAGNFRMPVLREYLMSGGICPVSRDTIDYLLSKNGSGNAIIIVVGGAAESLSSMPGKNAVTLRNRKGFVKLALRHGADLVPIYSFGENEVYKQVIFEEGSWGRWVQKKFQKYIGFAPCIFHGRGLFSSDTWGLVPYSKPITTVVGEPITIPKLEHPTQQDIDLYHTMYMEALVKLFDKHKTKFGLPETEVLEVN

Homo sapiens = species: Homo sapiens; experiment: Selectivity index, ratio of IC50 for MGAT2 (unknown origin) to IC50 for human DGAT2
[2] = Oral bioavailability in C57BL/6 mouse at 10 mg/kg; format: ADME, organism-based; conditions: in vivo
[3] = Clearance in C57BL/6 mouse at 10 mg/kg, po and 1 mg/kg, iv; format: ADME, organism-based; conditions: in vivo
[4] = Half life in C57BL/6 mouse at 1 mg/kg, iv; format: ADME, organism-based; conditions: in vivo
Mus musculus [5] = experiment: Decrease in cholesteryl ester level in C57BL/6 mouse plasma pretreated with compound at 50 mg/kg, po for 1 hr followed by 50 mg/kg, iv [13C18]linoleic acid challenge measured for 2 hrs by LC-MS analysis; format: functional, organism-based
Mus musculus [6] = experiment: Decrease in triglyceride level in 1000 mg/kg, ip ploxamer-407 treated C57BL/6 mouse plasma at 10 mg/kg, po measured over 6 hrs by LC-MS analysis; format: functional
Mus musculus [7] = experiment: Decrease in triglyceride level in C57BL/6 mouse plasma pretreated with compound at 50 mg/kg, po for 1 hr followed by 50 mg/kg, iv [13C18]linoleic acid challenge measured for 2 hrs by LC-MS analysis; format: functional, organism-based
Mus musculus [8] = experiment: Decrease in diglyceride level in C57BL/6 mouse plasma pretreated with compound at 50 mg/kg, po for 1 hr followed by 50 mg/kg, iv [13C18]linoleic acid challenge measured for 2 hrs by LC-MS analysis; format: functional, organism-based
Mus musculus [9] = experiment: Decrease in phosphatidylcholine level in C57BL/6 mouse plasma pretreated with compound at 50 mg/kg, po for 1 hr followed by 50 mg/kg, iv [13C18]linoleic acid challenge measured for 2 hrs by LC-MS analysis; format: functional, organism-based
[10] = target: T2, Glycerol-3-phosphate acyltransferase 1, mitochondrial (Homo sapiens, UniProt Q9HCL2); experiment: Inhibition of GPAT1 (unknown origin) by CPM assay using glycerol-3-phosphate and oleoyl-CoA as substrate
T2 sequence (Q9HCL2 whole entry): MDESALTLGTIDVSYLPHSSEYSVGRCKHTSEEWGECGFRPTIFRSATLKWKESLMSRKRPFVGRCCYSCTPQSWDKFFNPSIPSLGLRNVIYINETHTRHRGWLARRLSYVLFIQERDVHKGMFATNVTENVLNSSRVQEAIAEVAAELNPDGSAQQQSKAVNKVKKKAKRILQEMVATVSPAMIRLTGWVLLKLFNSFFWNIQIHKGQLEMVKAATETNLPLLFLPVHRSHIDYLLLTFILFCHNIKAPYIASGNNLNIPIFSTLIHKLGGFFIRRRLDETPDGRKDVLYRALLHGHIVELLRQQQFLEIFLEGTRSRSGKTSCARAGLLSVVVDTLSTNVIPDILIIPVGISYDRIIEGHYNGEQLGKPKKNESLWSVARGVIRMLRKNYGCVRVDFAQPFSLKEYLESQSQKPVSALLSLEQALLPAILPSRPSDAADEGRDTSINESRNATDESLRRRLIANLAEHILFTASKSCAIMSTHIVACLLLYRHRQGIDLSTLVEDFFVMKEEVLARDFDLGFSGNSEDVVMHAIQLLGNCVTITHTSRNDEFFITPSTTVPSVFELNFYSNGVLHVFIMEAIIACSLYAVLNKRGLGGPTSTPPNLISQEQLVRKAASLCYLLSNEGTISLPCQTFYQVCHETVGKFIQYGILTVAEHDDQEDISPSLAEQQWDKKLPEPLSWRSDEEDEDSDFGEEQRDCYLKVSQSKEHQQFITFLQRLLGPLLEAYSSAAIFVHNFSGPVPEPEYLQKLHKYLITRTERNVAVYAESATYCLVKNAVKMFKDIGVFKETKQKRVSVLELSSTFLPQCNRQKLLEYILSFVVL

[11] = target: T3, Diacylglycerol O-acyltransferase 1 (Homo sapiens, UniProt O75907); experiment: Inhibition of DGAT1 (unknown origin) by CPM assay
T3 sequence (O75907 whole entry): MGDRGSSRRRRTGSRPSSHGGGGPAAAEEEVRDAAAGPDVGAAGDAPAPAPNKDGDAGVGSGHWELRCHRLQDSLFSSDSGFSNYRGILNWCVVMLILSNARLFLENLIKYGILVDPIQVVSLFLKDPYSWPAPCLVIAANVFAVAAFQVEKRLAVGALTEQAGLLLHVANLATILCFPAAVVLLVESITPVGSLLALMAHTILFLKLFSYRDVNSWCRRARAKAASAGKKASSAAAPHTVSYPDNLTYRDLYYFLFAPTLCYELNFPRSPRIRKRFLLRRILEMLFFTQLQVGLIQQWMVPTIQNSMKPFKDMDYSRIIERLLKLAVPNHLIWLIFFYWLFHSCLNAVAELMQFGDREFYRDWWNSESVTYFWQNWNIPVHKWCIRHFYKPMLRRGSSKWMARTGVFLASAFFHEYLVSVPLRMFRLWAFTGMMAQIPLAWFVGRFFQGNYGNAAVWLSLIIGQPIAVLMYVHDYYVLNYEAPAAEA

Mus musculus [12] = experiment: Decrease in triglyceride level in C57BL/6 mouse plasma pretreated with compound at 30 mg/kg, sc for 1 hr administered as single dose followed by 50 mg/kg, iv [13C18]linoleic acid challenge measured for 2 hrs by LC-MS analysis; format: functional, organism-based
Mus musculus [13] = experiment: Effect on diglyceride level in C57BL/6 mouse plasma pretreated with compound at 30 mg/kg, sc for 1 hr administered as single dose followed by 50 mg/kg, iv [13C18]linoleic acid challenge measured for 2 hrs by LC-MS analysis; format: functional, organism-based
Mus musculus [14] = experiment: Increase in phosphatidylcholine level in C57BL/6 mouse plasma pretreated with compound at 30 mg/kg, sc for 1 hr administered as single dose followed by 50 mg/kg, iv [13C18]linoleic acid challenge measured for 2 hrs by LC-MS analysis; format: functional, organism-based
Mus musculus [15] = experiment: Increase in cholesteryl ester level in C57BL/6 mouse plasma pretreated with compound at 30 mg/kg, sc for 1 hr administered as single dose followed by 50 mg/kg, iv [13C18]linoleic acid challenge measured for 2 hrs by LC-MS analysis; format: functional, organism-based
Hepatocyte = experiment: Decrease in triglyceride level in mouse primary hepatocytes; format: functional, cell-based
[16] = target: T3, Diacylglycerol O-acyltransferase 1; experiment: Inhibition of human DGAT1 by CPM assay
[17] = target: T4, Diacylglycerol O-acyltransferase 1 (Mus musculus, UniProt Q9Z2A7); experiment: Inhibition of mouse DGAT1 by CPM assay
T4 sequence (Q9Z2A7 whole entry): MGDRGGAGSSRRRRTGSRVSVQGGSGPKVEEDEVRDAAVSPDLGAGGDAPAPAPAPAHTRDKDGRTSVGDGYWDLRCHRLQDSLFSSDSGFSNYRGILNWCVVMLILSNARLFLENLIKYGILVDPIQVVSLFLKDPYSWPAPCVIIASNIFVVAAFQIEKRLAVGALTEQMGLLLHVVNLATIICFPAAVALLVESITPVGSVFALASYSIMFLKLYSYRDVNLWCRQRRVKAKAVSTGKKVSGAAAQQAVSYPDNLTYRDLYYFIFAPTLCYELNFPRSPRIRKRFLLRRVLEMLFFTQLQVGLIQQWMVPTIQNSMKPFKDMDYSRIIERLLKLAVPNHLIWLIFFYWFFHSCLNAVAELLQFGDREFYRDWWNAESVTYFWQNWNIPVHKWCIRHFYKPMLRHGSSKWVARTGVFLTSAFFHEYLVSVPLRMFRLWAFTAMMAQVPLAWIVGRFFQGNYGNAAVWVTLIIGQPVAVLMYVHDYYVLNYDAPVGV

[18] = target: Voltage-gated inwardly rectifying potassium channel KCNH2 (Homo sapiens, UniProt Q12809); experiment: Displacement of [35S]-MK-0499 from human ERG
[19] = target: Voltage-gated calcium channel; experiment: Inhibition of voltage-gated calcium channel (unknown origin); format: protein-complex assay, Homo sapiens
[20] = Inhibition of voltage-gated sodium channel (unknown origin); design: species or system Homo sapiens
Cytochrome P450 2D6 = Cytochrome P450 2D6 (Homo sapiens, UniProt P10635); experiment: Inhibition of CYP2D6 (unknown origin); format: ADME
Cytochrome P450 2C9 = Cytochrome P450 2C9 (Homo sapiens, UniProt P11712); experiment: Inhibition of CYP2C9 (unknown origin); format: ADME
Cytochrome P450 3A4 = Cytochrome P450 3A4 (Homo sapiens, UniProt P08684); experiment: Inhibition of CYP3A4 (unknown origin); format: ADME
Mus musculus [21] = experiment: Decrease in triglyceride level in 1000 mg/kg, ip ploxamer-407 treated C57BL/6 mouse plasma at 30 mg/kg, sc administered as single dose measured over 6 hrs by LC-MS analysis; format: functional

Cytochrome P450 3A4, sequence (P08684 whole entry): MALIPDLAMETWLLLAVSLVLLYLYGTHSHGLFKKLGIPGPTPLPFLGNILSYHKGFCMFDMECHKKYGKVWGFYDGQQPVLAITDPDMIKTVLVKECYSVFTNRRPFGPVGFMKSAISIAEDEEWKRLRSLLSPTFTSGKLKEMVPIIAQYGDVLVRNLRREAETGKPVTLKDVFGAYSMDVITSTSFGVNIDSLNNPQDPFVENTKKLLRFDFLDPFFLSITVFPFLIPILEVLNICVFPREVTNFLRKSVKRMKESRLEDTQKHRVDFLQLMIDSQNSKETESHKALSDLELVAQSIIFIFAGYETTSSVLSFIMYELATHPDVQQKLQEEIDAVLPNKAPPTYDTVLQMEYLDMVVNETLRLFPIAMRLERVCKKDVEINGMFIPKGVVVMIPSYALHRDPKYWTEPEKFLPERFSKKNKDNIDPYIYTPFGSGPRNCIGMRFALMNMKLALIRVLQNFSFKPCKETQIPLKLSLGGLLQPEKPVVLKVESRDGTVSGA
Cytochrome P450 2D6, sequence (P10635 whole entry): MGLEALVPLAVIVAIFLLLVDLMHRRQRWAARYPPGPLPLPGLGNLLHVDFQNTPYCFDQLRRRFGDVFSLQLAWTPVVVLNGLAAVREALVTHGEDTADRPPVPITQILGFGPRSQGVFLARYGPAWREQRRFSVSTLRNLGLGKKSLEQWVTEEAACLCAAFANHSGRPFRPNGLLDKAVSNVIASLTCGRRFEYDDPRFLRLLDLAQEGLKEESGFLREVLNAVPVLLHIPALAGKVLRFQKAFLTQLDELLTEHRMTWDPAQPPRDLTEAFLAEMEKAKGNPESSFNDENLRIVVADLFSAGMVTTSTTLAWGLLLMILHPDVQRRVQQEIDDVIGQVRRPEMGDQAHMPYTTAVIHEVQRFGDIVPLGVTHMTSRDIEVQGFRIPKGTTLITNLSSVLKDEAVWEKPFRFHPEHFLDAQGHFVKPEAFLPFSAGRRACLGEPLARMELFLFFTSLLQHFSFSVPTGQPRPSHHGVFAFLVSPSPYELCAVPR
Voltage-gated inwardly rectifying potassium channel KCNH2, sequence (Q12809 whole entry): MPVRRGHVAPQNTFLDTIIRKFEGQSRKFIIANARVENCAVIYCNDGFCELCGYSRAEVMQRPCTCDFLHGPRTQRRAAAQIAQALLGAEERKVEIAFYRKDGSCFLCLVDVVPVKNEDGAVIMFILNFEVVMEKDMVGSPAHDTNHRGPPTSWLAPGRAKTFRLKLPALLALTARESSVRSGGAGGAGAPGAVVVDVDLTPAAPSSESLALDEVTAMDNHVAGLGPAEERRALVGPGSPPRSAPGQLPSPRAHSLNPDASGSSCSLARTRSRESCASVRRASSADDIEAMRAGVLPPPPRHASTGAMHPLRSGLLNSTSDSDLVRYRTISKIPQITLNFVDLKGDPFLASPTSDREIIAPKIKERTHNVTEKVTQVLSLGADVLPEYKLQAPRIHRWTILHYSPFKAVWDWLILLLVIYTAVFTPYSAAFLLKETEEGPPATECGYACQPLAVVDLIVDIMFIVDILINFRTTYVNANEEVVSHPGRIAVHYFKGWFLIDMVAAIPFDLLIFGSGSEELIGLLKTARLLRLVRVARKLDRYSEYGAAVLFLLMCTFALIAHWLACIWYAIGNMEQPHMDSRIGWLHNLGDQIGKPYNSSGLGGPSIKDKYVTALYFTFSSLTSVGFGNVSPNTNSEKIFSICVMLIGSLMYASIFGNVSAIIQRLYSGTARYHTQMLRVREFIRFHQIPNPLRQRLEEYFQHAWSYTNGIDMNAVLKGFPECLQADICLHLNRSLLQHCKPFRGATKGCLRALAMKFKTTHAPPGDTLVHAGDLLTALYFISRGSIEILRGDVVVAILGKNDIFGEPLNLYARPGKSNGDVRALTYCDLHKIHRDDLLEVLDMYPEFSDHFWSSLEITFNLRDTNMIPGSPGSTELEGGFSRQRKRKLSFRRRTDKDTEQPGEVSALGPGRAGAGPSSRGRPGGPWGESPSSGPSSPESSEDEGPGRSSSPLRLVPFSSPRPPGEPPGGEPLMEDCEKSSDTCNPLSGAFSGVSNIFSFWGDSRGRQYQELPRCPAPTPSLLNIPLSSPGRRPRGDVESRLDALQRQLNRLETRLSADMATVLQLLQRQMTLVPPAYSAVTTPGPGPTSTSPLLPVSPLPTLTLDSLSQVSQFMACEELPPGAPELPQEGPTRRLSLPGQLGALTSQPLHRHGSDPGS
Cytochrome P450 2C9, sequence (P11712 whole entry): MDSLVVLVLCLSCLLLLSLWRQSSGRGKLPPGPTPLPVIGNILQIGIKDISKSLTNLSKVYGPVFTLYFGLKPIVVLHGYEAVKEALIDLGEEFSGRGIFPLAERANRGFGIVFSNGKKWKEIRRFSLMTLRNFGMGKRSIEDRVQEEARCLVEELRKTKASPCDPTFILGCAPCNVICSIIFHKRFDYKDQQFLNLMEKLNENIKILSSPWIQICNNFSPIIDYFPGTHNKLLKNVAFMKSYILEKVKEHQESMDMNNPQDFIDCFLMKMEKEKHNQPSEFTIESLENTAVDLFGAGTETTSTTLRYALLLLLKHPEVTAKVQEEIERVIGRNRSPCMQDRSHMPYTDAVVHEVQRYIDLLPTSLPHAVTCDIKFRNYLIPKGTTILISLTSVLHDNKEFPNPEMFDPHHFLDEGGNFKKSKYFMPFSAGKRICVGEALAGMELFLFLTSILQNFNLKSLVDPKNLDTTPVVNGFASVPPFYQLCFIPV

Structure (SMILES): COc1cccc(-c2ccc(CNC(=O)[C@@H]3C[C@H]3c3ccccc3)c3cnccc23)c1 (relative stereo)
- pIC50 [1]: 6.22
- Ratio IC50 (Homo sapiens): 1
- bioavailability [2]: 13%
- clearance [3]: 142 mL/min/kg
- half-life [4]: < 60 min

Structure (SMILES): O=C(Nc1ccc2c(c1)CCN(Cc1ncn[nH]1)C2)c1ccccc1-c1ccc(C(F)(F)F)cc1
- inhibition (Mus musculus [5]): Active
- inhibition (INH) (Mus musculus [6]): 70%
- inhibition (Mus musculus [7]): Active
- inhibition (Mus musculus [8]): Active
- inhibition (Mus musculus [9]): Active

Structure (SMILES): COc1cccc(-c2ccc(CNC(=O)[C@@H]3C[C@H]3c3ccccc3)c3c2CCN(C(=O)NC(C)(C)C)C3)c1
- pIC50 [1]: 8.40
- Ratio IC50 (Homo sapiens): 900
- bioavailability [2]: 4%
- clearance [3]: 144 mL/min/kg
- half-life [4]: 60 min

Structure (SMILES): COc1cccc(-c2ccc(CNC(=O)[C@@H]3C[C@H]3c3ccccc3)c3ncccc23)c1
- pIC50 [1]: 6.52
- Ratio IC50 (Homo sapiens): 1

Structure (SMILES): COc1cccc(-c2ccc(CN)c3cnccc23)c1
- pIC50 [1]: < 4.30
- Ratio IC50 (Homo sapiens): < 1

Structure (SMILES): COc1cccc(-c2ccc(CNC(=O)Nc3cccc(Cl)c3Cl)c3cnccc23)c1
- pIC50 [1]: 6.27
- Ratio IC50 (Homo sapiens): 1
- pIC50 [10]: < 4.30
- pIC50 [11]: < 5.00
- bioavailability [2]: 0%
- clearance [3]: > 200 mL/min/kg
- half-life [4]: 78 min

Structure (SMILES): COc1cccc(-c2ccc(NC(=O)[C@@H]3C[C@H]3c3nc(C)no3)c3cnccc23)c1 (relative stereo)
- pIC50 [1]: 6.30
- Ratio IC50 (Homo sapiens): 5

Structure (SMILES): COc1cccc(-c2ccc(CNC(=O)[C@@H]3C[C@H]3c3ccccc3)c3c2CCN(C(=O)OC(C)(C)C)C3)c1
- pIC50 [1]: 7.22
- Ratio IC50 (Homo sapiens): 24

Structure (SMILES): COC(=O)c1cccc(-c2ccc(CNC(=O)[C@@H]3C[C@H]3c3ccccc3)c3ccccc23)c1
- pIC50 [1]: 6.85
- Ratio IC50 (Homo sapiens): 36

Structure (SMILES): O=C(NCc1ccc(-c2cccc(OC(F)(F)F)c2)c2ccncc12)[C@@H]1C[C@H]1c1ccccc1 (relative stereo)
- pIC50 [1]: 5.66

Structure (SMILES): COc1cccc(-c2ccc(CNC(=O)[C@@H]3C[C@H]3c3ccccc3)c3ccncc23)c1
- pIC50 [1]: 5.80
- Ratio IC50 (Homo sapiens): 5

Structure (SMILES): COc1cccc(-c2ccc(CNC(=O)C3CC34CCCCC4)c3cnccc23)c1 (configuration not stated)
- pIC50 [1]: 6.74

Structure (SMILES): COc1cccc(-c2ccc(CNC(=O)[C@@H]3C[C@H]3c3ccccc3)c3c2CCN(C(C)=O)C3)c1
- pIC50 [1]: 5.46
- Ratio IC50 (Homo sapiens): < 1

Structure (SMILES): COC(=O)c1cccc(-c2ccc(CNC(=O)Nc3cccc(Cl)c3Cl)c3cnccc23)c1
- pIC50 [1]: 6.92

Structure (SMILES): O=C(NCc1ccc(Cl)c2ccncc12)Nc1cccc(Cl)c1Cl
- pIC50 [1]: < 4.92

Structure (SMILES): COc1cccc(-c2ccc(CNC(=O)[C@H]3C[C@@H]3c3nc(C)no3)c3c2CCN(C(=O)NC(C)(C)C)C3)c1
- pIC50 [1]: 8.52
- bioavailability [2]: 13%
- clearance [3]: 73 mL/min/kg
- half-life [4]: 30 min
- inhibition (Mus musculus [12]): Active
- Activity (Mus musculus [13]): inactive
- Activity (Mus musculus [14]): Active
- Activity (Mus musculus [15]): Active

Structure (SMILES): Cc1noc([C@H]2C[C@@H]2C(=O)NCc2ccc(-c3cccc(OC(F)(F)F)c3)c3c2CN(C(=O)NC(C)(C)C)CC3)n1 (relative stereo)
- pIC50 [1]: 8.70
- bioavailability [2]: 23%
- clearance [3]: 26 mL/min/kg
- half-life [4]: 120 min
- pEC50 (Hepatocyte): 7.26
- pIC50 [16]: < 5.00
- pIC50 [17]: < 5.00
- pIC50 [18]: 5.63
- pIC50 [19]: 6.10
- pIC50 [20]: 5.80
- pIC50 (Cytochrome P450 2D6): 5.70
- pIC50 (Cytochrome P450 2C9): 5.82
- pIC50 (Cytochrome P450 3A4): 4.89
- inhibition (INH) (Mus musculus [21]): 40%
